Experimental data from patent publication US20100280125A1, “MEDICINAL AGENT” (priority 2004, published 2010).

Tests used:
papillary thyroid cancer = assay: treatment of patient R, papillary thyroid cancer; type: in vivo, human
Description: The patient was treated with the medicinal agent (B.V.2) for 2 weeks; one gelatine capsule two times a day with 20 mg medicinal agent perorally after food and enemas in a single dose of 100 ml solution, comprising 50 mg medicinal agent powder, diluted in 2 ml 70% ethyl alcohol and dissolved in 100 ml water solution with 0.9% NaCl.

[1] = test system: cancer of the right ovary (recidiv); assay: treatment of patient I, recidiv of ovary cancer; type: in vivo, human
Description: Exstirpation of the uterus and the surrounding area on account of cancer of the right ovary was performed on patient I who was […] and had visited the doctor in November 2002. The tomogram that was dated 28 Aug.
The patient was treated with an enema of the rectum: over five days once a day, after five procedures once every other day and thereafter every third day for 15 enemas. They were treated with a single dose of 20 mg medicinal agent (B.V.2) per 15-20 ml water, diluted in 2 ml 70% ethyl alcohol.

[2] = test system: human malignant melanoma A 375; assay: replication of melanoma cells in test glasses; type: cell-based; conditions: a week at 37° C. in the dark, in comparison to physiological salt solution
Description: In addition, a third control group of test glasses (6 glasses) was formed with the same cancer cell pool and fibroblasts, into which adriamycin and cyclophosphan in the same dilution was introduced, as well as a corresponding test glass group with a physiological salt solution.
After thermostatization of the above-mentioned test glasses for a week at 37° C. (in the dark), the contents were analyzed.

melanoma 16 = type: in vivo, mice; conditions: for mice survived as far as the 36th day: control sub groups of 10 mice, 5 mg in water solution as a drink; for findings during the dissection: first and second sub group of the control group, 5 mg as a drink
Description: B57 type mice in the test and control group (60 mice each) were injected with melanoma 16. The test group were divided into 6 sub groups and the control group was divided into 3 sub groups, each with 10 mice.

[3] = 3 hours after taking the dose, over 7 days

Compound | duration of the dissymmetric effect (papillary thyroid cancer) [h] | ultrasound investigation after the treatment (papillary thyroid cancer; 2 weeks, capsules 20 mg two times a day and enemas 50 mg, growth 5×3×1.7 cm before) | temperature on the left side of the body (dissymmetric effect) (papillary thyroid cancer; [3]) | temperature on the right side of the body (dissymmetric effect) (papillary thyroid cancer; [3]) | growth in control investigation using ultrasound ([1]; 2 Mar. 2004) | erythrocytes ([1]; after the treatment, before 2.5 million) [million] | thrombocytes ([1]; after the treatment, before 110,000) | leucocytes ([1]; after the treatment, before up to 10,000) | suppression of the replication of the melanoma cells ([2]; dilution of 10^−7 mmol/l) [%] | suppression of the replication of the melanoma cells ([2]; dilution of 10^−9 mmol/l) [%] | mice survived as far as the 36th day (melanoma 16) [mice] | findings during the dissection (melanoma 16)
hexamethyl pararosanilin chloride [methyl violet 10B] | 1.0 to 1.5 | a primary growth and no metastases | 37.3-38.6 °C | 35.4-36.9 °C | no longer to be found | 5.5 | 300,000 | 9,000 | – | – | – | –
COc1cccc2c1C(=O)c1c(O)c3c(c(O)c1C2=O)C[C@@](O)(C(=O)CO)C[C@@H]3O[C@H]1C[C@H](N)[C@H](O)[C@H](C)O1 [adriamycin] | – | – | – | – | – | – | – | – | 42 | 30 | 2 | lung and liver injuries
O=P1(N(CCCl)CCCl)NCCCO1 (stereo not shown) [cyclophosphan] | – | – | – | – | – | – | – | – | 55 | 35 | 5 | lung and liver injuries
